Laboratory results: patent publication US10851073B2, “Protein tyrosine phosphatase inhibitors and methods of use thereof” (Calico Life Sciences LLC, priority 2019, dated 2020)

How the values were obtained:
[1] = tested on: Granzyme B+ cells within the CD8+ T cell population; assay: Granzyme B staining of CD8 T cells flow cytometry assay in mouse spleen; format: in vivo
Description: Granzyme B Staining of CD8 T Cells Flow Cytometry Assay in Mouse Spleen. Mice were sacrificed on day 8 of dosing with Compound 118 (2 hours after the 16th dose) and spleens were excised. Spleens were dissociated with a gentleMACS dissociator (Miltenyi Biotec, Bergisch Gladbach, Germany), red blood cells lysed, and single cell suspensions were prepared. Splenocytes were stained with Zombie UV™ Fixable Viability kit (Biolegend, San Diego, Calif.) diluted in Dulbecco's PBS for 10 minutes at room temperature to exclude dead cells followed by staining for surface markers for 45 minutes on ice using the following flow cytometry antibodies diluted in autoMACS Running Buffer (Miltenyi Biotec, Bergisch Gladbach, Germany): Brilliant Violet 510-labeled anti-CD45, Brilliant Ultraviolet 395-labeled anti-CD3, Brilliant Violet 786-labeled anti-CD4, APC/Cy7-labeled anti-CD8. […] After staining, cells were washed twice with autoMACS Running Buffer, and the samples were acquired on a BD LSRFortessa™ X20 flow cytometers (BD Biosciences, San Jose, Calif.) and analyzed with FLowJo V10 software (FlowJo, Ashland, Oreg.). […]

[2] = tested on: pSTAT5 in CD3+ T cells; assay: pSTAT5 flow cytometry assay in mouse whole blood; format: in vivo
Description: pSTAT5 Flow Cytometry Assay in Mouse Whole Blood. Whole blood was drawn into EDTA powder coated tubes by cardiac puncture from mice on day 8 of dosing with Compound 118 (2 hours after the 16th dose). 90 μL of whole blood were stimulated with 10 μL of murine IL-2 to achieve a final concentration of 100 ng IL-2/mL (R&D Systems, Minneapolis, Minn., cat #402-ML) for 20 minutes at 37° C., 5% CO2. After stimulation, 1.8 mL of prewarmed BD Phosflow Lyse/Fix Buffer (BD Biosciences, San Jose, Calif.) was added for 20 minutes at 37° C. Cells were washed twice in FACS buffer (Dulbecco's PBS with 0.2% BSA) and incubated for 30 minutes on ice in cold Perm Buffer III (BD Biosciences, San Jose, Calif.). Cells were washed with FACS buffer and resuspended in 50 μL of FACS buffer with antibodies and stained for 3 hours at room temperature with gentle shaking. […] After staining, cells were washed twice with FACS buffer, and the samples were acquired on a BD LSRFortessa™ X20 flow cytometers (BD Biosciences, San Jose, Calif.) and analyzed with FLowJo V10 software (FlowJo, Ashland, Oreg.). The mean fluorescence intensity (MFI) of pSTAT5 as a measure of the amount of phosphorylated STAT5 in the CD3+ T cell population from vehicle or Compound 118 treated animals was reported.

[3] = tested on: IP10; assay: Cytokine measurement in mouse plasma; format: in vivo
Description: Cytokine Measurement in Mouse Plasma. Whole blood was drawn into EDTA powder coated tubes by cardiac puncture from mice on day 8 of dosing with Compound 118 (2 hours after the 16th dose) and plasma was prepared by centrifugation. Cytokines in plasma were measured using the Th1/Th2 Cytokine & Chemokine 20-Plex Mouse ProcartaPlex™ Panel 1 (Invitrogen, Carlsbad, Calif.). IP10 levels (pg/mL) in vehicle or Compound 118 treated animals were reported.

[4] = tested on: MC-38 murine colon adenocarcinoma; assay: In vivo efficacy in MC38 mouse tumor model
Description: Example 232. In Vivo Efficacy of PTPN2 Inhibitors in MC38 Mouse Tumor Model and Impact on Pharmacodynamic Markers
All experiments were conducted in compliance with AbbVie's Institutional Animal Care and Use Committee and the National Institutes of Health Guide for Care and Use of Laboratory Animals guidelines in a facility accredited by the Association for the Assessment and Accreditation of Laboratory Animal Care. C57Bl/6 female mice were obtained from Charles River (Wilmington, Mass.). The mice were group-housed 10 per cage. Food and water were available ad libitum. Animals were acclimated to the animal facilities for a period of at least one week prior to commencement of experiments. Animals were tested in the light phase of a 12-hour light: 12-hour dark schedule (lights on 0600 hours).
Tumor Cell Inoculation and Treatments.
Cells were grown to passage 3 in vitro. A total of 1×10^5 viable MC-38 cells were inoculated subcutaneously into the right flank of female C57Bl/6 mice (7-12 weeks old) on Day 0. The injection volume was 0.1 mL and was composed of a 1:1 mixture of S-MEM and Matrigel® (Corning, N.Y., USA). […] The mean tumor volume (TV) at size match was approximately 196±64 mm^3. Following size match, treatments were initiated on the same day. Dosing of mice was conducted orally, twice a day (BID) at 7 a.m. and 5 p.m. for 21 days. Mice were dosed (10 mg/kg/dose) with either Compound 118 or vehicle controls (n=15 mice/group). Compound 118 was formulated in 10% ethanol, 30% PEG-400 and 60% Phosal-50PG and was dosed at 10 mL/kg. Tumor volume was calculated three times weekly. Measurements of the length (L) and width (W) of the tumor were taken via electronic caliper and the volume was calculated according to the following equation: V=L×W^2/2 using Study Director Version 3.1.399.22 (Studylog Systems, Inc, CA, USA). Mice were euthanized when tumor volume was […] or skin ulcerations occurred. Tumor growth inhibition (TGI) was calculated as TGI=1−(Mean TVTimepoint(Treatment)/Mean TVTimepoint (Vehicle)) for each timepoint that tumor volumes were measured. Reported TGIMax is the largest TGI value for any timepoint that tumors volumes were collected for that treatment group.

[5] = 10 mg/kg/dose oral BID, day 8 of dosing (2 hours post 16th dose), value ± SEM
[6] = 10 mg/kg/dose oral BID for 21 days

## CC(C)CCN[C@@H]1CCc2cc(O)c(N3CC(=O)NS3(=O)=O)c(F)c2C1 (single isomer, unassigned) [Compound 118]
[1]; [5]
  % GzB+ cells within splenic CD8+ T cells: 4.3±0.9%
[1]; day 8 of dosing
  frequency of granzyme B producing cells within CD8+ T population in spleen, fold higher than vehicle: 3.9 fold
[2]; [5]
  pSTAT5 level [MFI] in CD3+ T cells from IL2 stimulated whole blood: 1261±97 MFI
[2]; day 8 of dosing, ex vivo IL2 stimulation
  pSTAT5 levels in whole blood T cells, fold higher than vehicle: 1.6 fold
[3]; [5]
  IP10 in plasma: 256 ± 30 pg/mL
[3]; day 8 of dosing
  IP10 levels in plasma, fold higher than vehicle: 1.7 fold
[4]; [6]
  mice that achieved complete cures: 70%
  tolerability: well tolerated, without obvious adverse health events
[4]; 10 mg/kg/dose oral BID for 21 days, C57Bl/6 mice
  Tumor Growth Inhibition (Max) compared to vehicle [%]: 94%
[4]; within 7-10 days of treatment
  tumor response observed: apparent tumor stasis and shrinkage
